Reference: ChEMBL document CHEMBL1201862, “PubChem BioAssay data set” (2004)
Activity calls are given as the source filed them.

What was measured:
[1] = Luminescence Cell-Based Dose Response HTS to Identify Inhibitors of 5'UTR Stem-Loop Driven Prion Protein mRNA Translation in H4 Neuroglioblastoma Cells. [Related pubchem assays: 1827 (Project Summary), 1813 (Primary HTS)]; assay type: functional
cells [2] = assay type: functional, cell-based
[3] = inhibitors of SNCA 5'UTR-driven translation, confirmation, luminescence, H4 neuroglioblastoma cells, dose confirmation (AID 2454); assay type: functional, cell-based;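 note: H4 neuroglioblastoma cells carrying an alpha-synuclein 5'UTR luciferase reporter; potency for inhibition of the luciferase signal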
[4] = inhibitors of firefly luciferase expression or activity, dose response, H4 neuroglioma cells, luminescence (AID 1990); assay type: functional, cell-based
[5] = inhibitors of SNCA 5'UTR-driven reporter translation, confirmation, H4 neuroglioma cells, luminescence (AID 1988); assay type: functional, cell-based
[6] = growth induction of Burl-1 ts yeast mutant, dose response, counter-screen for SUMOylation pathway inhibitor project, whole organism, S. cerevisiae, luminescence (AID 463199); assay type: functional
[7] = luciferase reporter signal reduction – luminescence, H4-C neuroglioblastoma cells, dose response (AID 2458); assay type: functional, cell-based;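 note: H4 neuroglioblastoma cells stably carrying a luciferase reporter gene fusion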
[8] = target: T1, Trace amine-associated receptor 1 (Homo sapiens, UniProt Q96RJ0); assay: Counterscreen for agonists of the human trace amine associated receptor 1 (hTAAR1): Fluorescence-based cell-based high throughput dose response assay to identify hTAAR1 agonist that also desensitize TAAR1 receptor response.; assay type: functional
T1 sequence (Q96RJ0 whole entry): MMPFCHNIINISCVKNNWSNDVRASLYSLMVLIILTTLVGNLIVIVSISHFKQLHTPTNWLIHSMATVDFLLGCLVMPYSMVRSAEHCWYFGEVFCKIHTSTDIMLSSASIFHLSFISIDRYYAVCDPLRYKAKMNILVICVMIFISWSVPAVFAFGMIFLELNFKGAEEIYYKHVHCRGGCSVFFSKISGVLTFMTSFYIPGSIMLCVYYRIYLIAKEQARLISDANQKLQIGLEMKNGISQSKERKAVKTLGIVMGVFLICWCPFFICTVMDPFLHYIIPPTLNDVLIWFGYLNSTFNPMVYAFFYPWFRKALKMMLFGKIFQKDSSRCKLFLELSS

Vero = assay: cells; assay type: functional, cell-based; settings: Chlorocebus sabaeus
cells [9] = assay type: functional, cell-based; remark: listed apart in the source
cells [10] = assay type: functional, cell-based; remark: listed apart in the source
[11] = target: T1, Trace amine-associated receptor 1; assay: Fluorescence-based cell-based high throughput dose response assay to identify agonists of the human trace amine associated receptor 1 (TAAR1).; assay type: functional
[12] = target: T2, Short transient receptor potential channel 4 (Mus musculus, UniProt Q9QUQ5); assay: mouse TRPC4 channel activators, dose response, cell-based, HEK293 TRPC4/mu-opioid, Fluo-4 calcium (AID 434937); assay type: functional
T2 sequence (Q9QUQ5 whole entry): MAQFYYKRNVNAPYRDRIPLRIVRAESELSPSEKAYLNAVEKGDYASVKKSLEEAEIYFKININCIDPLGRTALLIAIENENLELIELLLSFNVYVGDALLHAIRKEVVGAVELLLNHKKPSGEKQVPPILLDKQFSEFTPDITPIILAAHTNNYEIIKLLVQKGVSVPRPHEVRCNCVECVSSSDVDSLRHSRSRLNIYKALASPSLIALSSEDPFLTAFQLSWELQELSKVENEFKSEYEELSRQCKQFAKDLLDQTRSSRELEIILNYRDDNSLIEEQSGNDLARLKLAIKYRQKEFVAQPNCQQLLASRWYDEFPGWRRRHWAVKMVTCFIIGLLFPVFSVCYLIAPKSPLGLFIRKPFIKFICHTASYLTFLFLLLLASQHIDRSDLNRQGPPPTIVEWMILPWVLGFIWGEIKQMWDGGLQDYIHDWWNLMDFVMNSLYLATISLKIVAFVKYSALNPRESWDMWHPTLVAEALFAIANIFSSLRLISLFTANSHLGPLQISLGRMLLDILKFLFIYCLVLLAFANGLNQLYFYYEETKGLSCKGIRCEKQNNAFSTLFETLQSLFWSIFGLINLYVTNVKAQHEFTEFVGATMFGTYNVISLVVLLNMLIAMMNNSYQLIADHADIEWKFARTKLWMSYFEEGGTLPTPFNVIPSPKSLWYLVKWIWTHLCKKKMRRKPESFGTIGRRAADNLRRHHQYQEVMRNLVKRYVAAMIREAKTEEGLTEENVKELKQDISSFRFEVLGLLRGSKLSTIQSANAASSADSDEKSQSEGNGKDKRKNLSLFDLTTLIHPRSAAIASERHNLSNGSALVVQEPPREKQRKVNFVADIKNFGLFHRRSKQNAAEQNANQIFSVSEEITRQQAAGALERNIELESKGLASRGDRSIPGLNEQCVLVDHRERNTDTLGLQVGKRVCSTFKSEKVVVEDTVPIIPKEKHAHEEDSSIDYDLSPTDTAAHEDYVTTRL

Mu-type opioid receptor = Mu-type opioid receptor (Homo sapiens, UniProt P35372); assay: (§1) Counterscreen for agonists of heterodimerization of the mu 1 (OPRM1) and delta 1 (OPRD1) opioid receptors: Luminescence-based cell-based high throughput dose response assay to identify agonists of OPRM1 homodimerization.; assay type: functional
[13] = target: Delta-type opioid receptor (Homo sapiens, UniProt P41143); assay: as §1, with “of OPRD1” for “of OPRM1”, “homodimerization. [Related pubchem assays (depositor defined):AID504326, AID504355, AID504692, AID504904, AID504905]” for “homodimerization.”; assay type: functional
[14] = target: 5-hydroxytryptamine receptor 5A (Homo sapiens, UniProt P47898); assay: Counterscreen for agonists of OPRM1-OPRD1 heterodimerization: luminescence-based cell-based high throughput dose response assay to identify agonists of 5-hydroxytryptamine (serotonin) 5A receptor (HTR5A). [Related pubchem assays (depositor defined):AID504326, AID504355, AID504692, AID504904, AID504905]; assay type: functional
HEK293 [15] = assay: SAR Analysis of small molecule inhibitors of B-cell specific antigen receptor-induced NF-kB activation in a HEK-293T cell line using a luminescence assay - Set 2. [Related pubchem assays (depositor defined):AID435022, AID435025, AID489021]; assay type: functional, cell-based; settings: Homo sapiens
Jurkat [16] = assay: SAR Analysis of small molecule inhibitors of […] specific antigen receptor-induced NF-kB activation in a Jurkat cell line using a luminescence assay - Set 3. [Related pubchem assays (depositor defined):AID435022, AID435025, AID465]; assay type: functional, cell-based; settings: Homo sapiens
HEK293 [17] = assay: cytotoxicity in HEK293T NF-kB-Luc cells, SAR follow-up, cytotoxicity control for NF-kB activator project, cell-based, resazurin fluorescence (AID 493251); assay type: functional; settings: Homo sapiens
HEK293 [18] = assay: SAR Analysis of small molecule inhibitors of T-cell specific antigen receptor-induced NF-kB activation in a HEK-293T cell line using a luminescence assay - Set 2. [Related pubchem assays (depositor defined):AID435003, AID435012, AID489026]; assay type: functional, cell-based; settings: Homo sapiens
Jurkat [19] = assay: SAR Analysis of small molecule inhibitors of T-cell specific antigen receptor-induced NF-kB activation in a Jurkat cell line using a luminescence assay - Set 2. [Related pubchem assays (depositor defined):AID435003, AID435012, AID465]; assay type: functional, cell-based; settings: Homo sapiens
[20] = target: Dual specificity protein phosphatase 3 (Homo sapiens, UniProt P51452); assay: SAR VHR1 Fluorescent Assay for In Vitro dose response studies Set 3. [Related pubchem assays (depositor defined):AID1654, AID1661, AID1878]; assay type: functional
[21] = inhibitors of cytokine-induced nitrite release, dose response, cell-based, Griess absorbance, INS-1E, dry powder, set 3 (AID 488870); assay type: functional; settings: Rattus norvegicus
[22] = Luminescence Cell-Based Dose Retest to Confirm Inhibitors of Cancer Stem Cells. [Related pubchem assays (depositor defined):AID2717, AID2721]; assay type: functional; settings: Homo sapiens
[23] = target: T3, Mannose-6-phosphate isomerase (Homo sapiens, UniProt P34949); assay: human PMI inhibitors, high substrate, primary screen, biochemical, fluorescence intensity, high mannose 6-phosphate (AID 1220)
T3 sequence (P34949 whole entry): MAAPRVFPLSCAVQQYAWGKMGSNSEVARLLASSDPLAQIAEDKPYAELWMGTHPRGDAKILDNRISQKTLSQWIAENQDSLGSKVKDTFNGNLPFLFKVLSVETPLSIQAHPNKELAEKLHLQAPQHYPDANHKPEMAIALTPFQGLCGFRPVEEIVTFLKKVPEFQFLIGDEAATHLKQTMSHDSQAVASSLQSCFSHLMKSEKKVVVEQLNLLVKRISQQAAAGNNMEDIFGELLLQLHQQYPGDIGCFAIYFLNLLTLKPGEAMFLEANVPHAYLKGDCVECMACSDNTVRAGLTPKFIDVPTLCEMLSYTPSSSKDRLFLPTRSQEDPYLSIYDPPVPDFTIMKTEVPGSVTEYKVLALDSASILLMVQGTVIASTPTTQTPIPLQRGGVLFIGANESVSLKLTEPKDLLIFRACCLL

[24] = cytotoxicity in HMLE control line with eGFP shRNA, dose response, counter-screen for HMLE_sh_ECad selective toxicity project, cell-based, HMLE_sh_eGFP, luminescence (AID 463074); assay type: functional, Homo sapiens;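 note: HMLE human mammary epithelial cells expressing control shRNA against eGFP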
[25] = target: T4, Tyrosyl-DNA phosphodiesterase 2 (Homo sapiens, UniProt O95551); assay: human TDP2 enzyme inhibitors, dose response, biochemical, epi absorbance, IC50 (AID 743297)
T4 sequence (O95551 whole entry): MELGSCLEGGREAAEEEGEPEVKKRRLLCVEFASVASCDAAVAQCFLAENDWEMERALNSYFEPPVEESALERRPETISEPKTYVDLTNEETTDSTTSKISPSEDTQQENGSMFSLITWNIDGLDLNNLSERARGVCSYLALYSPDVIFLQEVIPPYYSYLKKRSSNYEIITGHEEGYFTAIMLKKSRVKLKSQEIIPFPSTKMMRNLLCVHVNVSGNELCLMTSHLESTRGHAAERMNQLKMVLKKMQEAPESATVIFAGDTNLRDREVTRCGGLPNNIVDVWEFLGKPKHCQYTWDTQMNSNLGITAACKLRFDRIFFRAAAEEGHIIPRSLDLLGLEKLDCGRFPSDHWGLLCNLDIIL

Sequence of Delta-type opioid receptor (P41143 whole entry): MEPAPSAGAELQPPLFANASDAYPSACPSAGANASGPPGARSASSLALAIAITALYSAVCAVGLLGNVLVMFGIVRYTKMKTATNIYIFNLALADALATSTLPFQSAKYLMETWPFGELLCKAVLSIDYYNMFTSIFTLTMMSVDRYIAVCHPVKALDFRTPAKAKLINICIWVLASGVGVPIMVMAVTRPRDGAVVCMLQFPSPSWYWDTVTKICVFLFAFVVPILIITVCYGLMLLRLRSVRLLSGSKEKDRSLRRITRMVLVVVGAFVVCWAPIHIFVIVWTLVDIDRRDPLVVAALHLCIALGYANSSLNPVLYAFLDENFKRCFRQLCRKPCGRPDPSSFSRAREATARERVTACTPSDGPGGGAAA
Sequence of Dual specificity protein phosphatase 3 (P51452 whole entry): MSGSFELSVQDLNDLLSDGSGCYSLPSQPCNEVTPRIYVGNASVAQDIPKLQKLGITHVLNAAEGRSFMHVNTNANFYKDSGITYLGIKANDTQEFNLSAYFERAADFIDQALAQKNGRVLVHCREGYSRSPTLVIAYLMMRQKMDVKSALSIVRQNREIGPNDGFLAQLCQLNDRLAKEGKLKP
Sequence of 5-hydroxytryptamine receptor 5A (P47898 whole entry): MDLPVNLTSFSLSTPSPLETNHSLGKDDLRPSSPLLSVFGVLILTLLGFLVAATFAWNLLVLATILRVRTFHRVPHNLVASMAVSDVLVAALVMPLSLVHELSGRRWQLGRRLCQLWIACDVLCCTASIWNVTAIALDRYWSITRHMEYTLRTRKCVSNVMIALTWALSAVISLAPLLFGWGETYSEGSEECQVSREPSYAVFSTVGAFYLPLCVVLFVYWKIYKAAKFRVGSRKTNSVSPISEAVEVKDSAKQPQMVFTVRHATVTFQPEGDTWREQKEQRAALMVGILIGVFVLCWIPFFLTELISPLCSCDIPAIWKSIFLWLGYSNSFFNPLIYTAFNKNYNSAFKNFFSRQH
Sequence of Mu-type opioid receptor (P35372 whole entry): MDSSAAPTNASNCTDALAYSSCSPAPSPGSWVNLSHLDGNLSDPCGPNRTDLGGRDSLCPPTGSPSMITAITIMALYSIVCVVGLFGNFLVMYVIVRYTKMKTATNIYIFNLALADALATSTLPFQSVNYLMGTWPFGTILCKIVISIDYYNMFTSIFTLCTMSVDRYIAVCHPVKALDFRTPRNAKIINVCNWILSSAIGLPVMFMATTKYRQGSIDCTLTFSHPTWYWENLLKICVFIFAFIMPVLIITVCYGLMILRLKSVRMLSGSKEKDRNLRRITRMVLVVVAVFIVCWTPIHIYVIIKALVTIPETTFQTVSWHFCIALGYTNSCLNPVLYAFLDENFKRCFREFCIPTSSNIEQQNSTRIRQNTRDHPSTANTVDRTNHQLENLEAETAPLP

COc1ccc2cc3c(N)nn(C(=O)c4ccccc4Cl)c3nc2c1
EC50 [1]: < 0.1 µM (active)
EC50 (cells [2]): 0.736 µM (active)
EC50 [3]: > 12 µM (not active)
EC50 [4]: < 0.1 µM (active)
EC50 [5]: 9.14 µM (active)
AC50 [6]: 47.8 µM (active)
EC50 [7]: 1.43 µM (active)

CCCCOc1ccc(C(=O)Nc2ccc(N3CCN(C)CC3)cc2)cc1
IC50 [8]: > 29.9 µM (inactive)
IC50 (Vero): 24.8 µM (active)
IC50 (cells [9]): > 29.9 µM (inactive)
EC50 (cells [10]): > 29.9 µM (inactive)
EC50 [11]: 10.2 µM (inactive)

OCC1(CCc2ccccc2)CCN(Cc2cccn2-c2cccnc2)CC1
EC50 [12]: 0.149 µM (active)
EC50 (Mu-type opioid receptor): 52.6 µM (inactive)
EC50 [13]: > 92.5 µM (inactive)
EC50 [14]: > 92.5 µM (inactive)

CCOc1ccc(-c2nc(CSCC(=O)NCCOC)c(C)o2)cc1
IC50 (HEK293 [15]): > 80 µM (inactive)
IC50 (Jurkat [16]): > 80 µM (inactive)
IC50 (HEK293 [17]): > 80 µM (inactive)

CC(=O)N1CCc2cc(NC(=O)c3ccc([N+](=O)[O-])o3)ccc21
IC50 (HEK293 [18]): 50.5 µM (inactive)
IC50 (HEK293 [17]): > 80 µM (inactive)
IC50 (Jurkat [19]): 49.5 µM (inactive)

COc1ccc(-c2nnc(Nc3nc4c(F)cccc4s3)o2)cc1
IC50 [20]: 3.71 µM (active)

COc1ccc(NC(=O)N(C)C[C@@H]2Oc3c(NC(=O)Nc4cccc5ccccc45)cccc3C(=O)N([C@@H](C)CO)C[C@H]2C)cc1
AC50 [21]: 43.7 µM (active)

Oc1c(/C=N/c2cccc3nsnc23)ccc2ccccc12
AC50 [22]: 23.7 µM (active)
IC50 [23]: > 50 µM (not active)
AC50 [24]: 29.4 µM (active)
IC50 [25]: 80.5 µM (inactive)
